We go through two molecules from article PMC4769319, “Cohesin Releases DNA through Asymmetric ATPase-Driven Ring Opening” (Molecular Cell, 2016).

SMILES strings stand for the structures. Bounds are passed on as bounds.

The experiment concerns the target T1, Smc1/Smc3 heterodimer with Scc1-C (cohesin) (Saccharomyces cerevisiae, UniProt P32908+P47037, P32908:E1158Q, form not given).
T1 construct: N-terminal tags; Sf9 insect cells; fluorescently labelled for MST; with Sister chromatid cohesion protein 1
T1 sequence (P32908 1-1225 E1158Q): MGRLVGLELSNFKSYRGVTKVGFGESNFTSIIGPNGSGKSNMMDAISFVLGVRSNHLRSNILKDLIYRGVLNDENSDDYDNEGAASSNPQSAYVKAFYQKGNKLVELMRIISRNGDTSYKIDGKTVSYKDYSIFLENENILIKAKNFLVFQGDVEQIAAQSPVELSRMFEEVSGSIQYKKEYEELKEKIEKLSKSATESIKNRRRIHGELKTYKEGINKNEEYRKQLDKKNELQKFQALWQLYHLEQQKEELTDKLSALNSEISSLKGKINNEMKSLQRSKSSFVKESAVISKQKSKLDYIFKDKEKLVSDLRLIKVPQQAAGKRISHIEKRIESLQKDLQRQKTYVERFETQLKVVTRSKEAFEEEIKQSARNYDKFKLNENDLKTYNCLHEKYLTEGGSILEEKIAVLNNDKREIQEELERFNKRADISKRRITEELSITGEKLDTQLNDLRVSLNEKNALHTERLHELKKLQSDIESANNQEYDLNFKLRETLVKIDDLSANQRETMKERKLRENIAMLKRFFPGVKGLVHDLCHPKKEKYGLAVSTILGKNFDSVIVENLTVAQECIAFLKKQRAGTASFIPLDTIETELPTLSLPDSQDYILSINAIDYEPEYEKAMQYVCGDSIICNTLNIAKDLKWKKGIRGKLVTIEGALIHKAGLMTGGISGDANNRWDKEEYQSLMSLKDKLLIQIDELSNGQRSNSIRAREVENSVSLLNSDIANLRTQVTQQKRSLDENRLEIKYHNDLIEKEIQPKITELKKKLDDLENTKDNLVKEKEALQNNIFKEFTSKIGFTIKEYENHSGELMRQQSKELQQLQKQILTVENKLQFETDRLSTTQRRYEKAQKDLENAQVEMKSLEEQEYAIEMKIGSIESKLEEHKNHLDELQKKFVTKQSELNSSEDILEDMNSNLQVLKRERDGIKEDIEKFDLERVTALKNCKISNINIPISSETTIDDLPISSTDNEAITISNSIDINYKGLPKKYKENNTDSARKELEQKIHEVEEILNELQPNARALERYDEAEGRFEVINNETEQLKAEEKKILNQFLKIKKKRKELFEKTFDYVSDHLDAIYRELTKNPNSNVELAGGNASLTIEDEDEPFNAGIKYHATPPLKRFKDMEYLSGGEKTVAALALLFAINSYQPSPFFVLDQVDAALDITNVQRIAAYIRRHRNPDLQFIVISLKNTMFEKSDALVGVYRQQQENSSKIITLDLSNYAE
T1 sequence (P47037 1-1230): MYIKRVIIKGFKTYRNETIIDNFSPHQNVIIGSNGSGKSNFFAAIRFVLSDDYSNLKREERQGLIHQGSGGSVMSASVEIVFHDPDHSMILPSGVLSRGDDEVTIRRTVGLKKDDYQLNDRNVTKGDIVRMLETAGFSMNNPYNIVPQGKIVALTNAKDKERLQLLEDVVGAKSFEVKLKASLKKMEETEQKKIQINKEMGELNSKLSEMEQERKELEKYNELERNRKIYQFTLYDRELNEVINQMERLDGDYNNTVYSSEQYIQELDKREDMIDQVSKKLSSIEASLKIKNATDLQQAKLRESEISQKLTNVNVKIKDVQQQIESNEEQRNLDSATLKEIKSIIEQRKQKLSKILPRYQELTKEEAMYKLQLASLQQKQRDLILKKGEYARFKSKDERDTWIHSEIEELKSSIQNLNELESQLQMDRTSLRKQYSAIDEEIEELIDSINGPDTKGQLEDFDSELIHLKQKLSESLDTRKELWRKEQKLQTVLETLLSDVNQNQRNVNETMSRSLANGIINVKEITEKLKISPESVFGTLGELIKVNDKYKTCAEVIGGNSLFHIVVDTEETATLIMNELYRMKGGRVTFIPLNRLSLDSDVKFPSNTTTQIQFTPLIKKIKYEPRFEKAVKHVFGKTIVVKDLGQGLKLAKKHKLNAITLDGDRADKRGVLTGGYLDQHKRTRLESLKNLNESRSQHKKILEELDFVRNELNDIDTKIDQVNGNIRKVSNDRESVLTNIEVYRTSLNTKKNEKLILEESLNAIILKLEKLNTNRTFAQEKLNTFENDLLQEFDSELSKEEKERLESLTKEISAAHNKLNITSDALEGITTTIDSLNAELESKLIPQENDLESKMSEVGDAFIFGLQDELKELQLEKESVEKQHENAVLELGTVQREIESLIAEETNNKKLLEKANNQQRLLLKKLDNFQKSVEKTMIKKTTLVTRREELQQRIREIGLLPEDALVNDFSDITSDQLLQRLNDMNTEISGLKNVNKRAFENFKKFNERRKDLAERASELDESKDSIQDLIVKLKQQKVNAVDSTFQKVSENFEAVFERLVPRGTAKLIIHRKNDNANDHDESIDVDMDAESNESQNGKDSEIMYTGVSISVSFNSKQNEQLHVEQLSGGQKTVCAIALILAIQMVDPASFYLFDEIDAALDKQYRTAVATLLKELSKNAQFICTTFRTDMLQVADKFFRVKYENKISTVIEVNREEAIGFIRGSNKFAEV
T1 sequence (Q12158 1-566 partner): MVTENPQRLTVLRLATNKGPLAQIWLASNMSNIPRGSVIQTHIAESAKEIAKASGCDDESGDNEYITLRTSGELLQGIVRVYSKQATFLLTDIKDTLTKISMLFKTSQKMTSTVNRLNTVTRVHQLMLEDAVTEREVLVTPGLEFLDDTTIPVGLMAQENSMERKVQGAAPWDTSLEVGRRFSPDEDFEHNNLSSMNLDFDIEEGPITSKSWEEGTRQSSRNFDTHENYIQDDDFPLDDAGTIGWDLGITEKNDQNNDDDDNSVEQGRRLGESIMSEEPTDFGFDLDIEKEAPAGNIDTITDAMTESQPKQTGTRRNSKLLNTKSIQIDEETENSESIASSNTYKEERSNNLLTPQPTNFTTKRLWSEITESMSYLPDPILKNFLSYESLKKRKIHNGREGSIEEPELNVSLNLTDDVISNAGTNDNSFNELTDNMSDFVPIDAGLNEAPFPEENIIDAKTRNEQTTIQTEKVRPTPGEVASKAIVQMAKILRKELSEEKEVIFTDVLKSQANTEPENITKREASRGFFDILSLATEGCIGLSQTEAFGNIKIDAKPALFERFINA
Briefly: microscale thermophoresis. As to conditions: fluorescently labelled protein; Smc1 co-purified with Scc1-C, plus Smc3; read-out: affinity. In kind it is binding. An excerpt: microscale thermophoresis on Smc1/Smc3 heterodimer with Scc1-C (cohesin) | Smc1 L1129V, D1164E and E1158Q mutants all had wild-type-like affinity to both ATP and ADP | wild-type and mutant cohesin complexes appear to have similar affinities to ADP
In general terms: Microscale thermophoresis detects binding through changes in fluorescence in a small temperature gradient.

As for `Nc1ncnc2c1ncn2[C@@H]1O[C@H](COP(=O)(O)OP(=O)(O)OP(=O)(O)O)[C@@H](O)[C@H]1O` [ATP], the Kd is 567 ± 289 µM.
On to `Nc1ncnc2c1ncn2[C@@H]1O[C@H](COP(=O)(O)OP(=O)(O)O)[C@@H](O)[C@H]1O` [ADP], for which the Kd was over 1000 µM.
